“Also recorded” adds a separate entry of the source.
Key:
[1] = test system: MAP-kinase p42^mapk in NB4 cells; assay: MAP-kinase activation (p42mapk phosphorylation) in NB4 cells; assay type: cell-based, human
Description: In order to determine whether MAP-kinase phosphorylation is specific and is altered by 1α,25(OH)2 D3, the time-dependent effects of 1α,25(OH)2 D3 on p42^mapk phosphorylation was examined using human acute promyelocytic leukemia cells (NB4). In this study, the NB4 cells, cultured in 10% charcoal-stripped fetal calf serum (FCS) medium, were treated with 1α,25(OH)2 D3 at 10^-8 M for various time periods. Cells were then extracted and the phosphorylated MAP-kinase was immunoprecipitated with anti-phosphotyrosine antibody and further analyzed by Western blot using the antibodies against p42^mapk.
The lysate was further processed for anti-phosphotyrosine immunoprecipitation. […] After transferring the proteins to the PVDF membrane, the membrane was further incubated with primary anti-p42^mapk antibodies that were (+) or were not (-) pre-exposed to MAP-kinase peptide.
This example describes assays used for measurement of MAP-kinase activity in NB4 cells.
Cell culture of NB4 cells
The cell line is characterized by a translocation involving chromosomes 15 and 17, which is typical of the classical form of APL-M3 in the French-American-British [FAB] classification. NB4 cells were cultured in DMEM/F12 medium with 10% FCS at 5% CO2 balanced air and were routinely passaged as suspension cultures and only passages 8 to 20 were used for each assay.
Immunoprecipitation of Tyrosine-Phosphorylated Proteins
NB4 cells were cultured in 60-mm diameter dishes and treated with 1,25(OH)2 D3 or analogs in 4 ml of DMEM/F12 containing 10% charcoal-stripped FCS.
Insoluble material was removed in a microcentrifuge at 14,000 rpm for 10 min. Protein concentration was determined with a protein assay kit (Bio-Rad Lab, Hercules, Calif.). For immunoprecipitation, the supernatant was incubated with bead-conjugated monoclonal anti-phosphotyrosine antibody overnight at 4° C. The immunoprecipitates containing the tyrosine-phosphorylated proteins were washed four times with freshly-prepared RIPA buffer and further eluted with 2× Laemmli gel buffer.
At this point, the samples were either stored at -20° C. for further use or processed via Western blots. Equal loading of MAP-kinase protein was determined by running the Western blots using polyclonal anti-p42^mapk antibody. For this purpose, samples were aliquoted from each cell extract before immunoprecipitation.
SDS Gel Electrophoresis and Western blot
The membrane was further immunoblotted using a rabbit anti-p42^mapk polyclonal antibody overnight at 4° C. followed by incubation with secondary horseradish peroxidase-conjugated mouse anti-rabbit antibody for 1 hr at 25° C. The phosphorylated MAP-kinase bands were then visualized by enhanced chemiluminescence (ECL). A Ultrascan LX Laser Densitometer (LKB, Bromma, Sweden) scanned the density of the immuno-phosphoprotein bands. The results were normalized by protein loading and further plotted as percent of control of the band density.

[2] = test system: chloride channels in ROS 17/2.8 cells; details: 1 nM HL in the bath; 1α,25(OH)2 D3 5 nM or less
Description: In each case, at least a 3-min period was allowed after the addition of the analog to the bath for currents to reach a stable amplitude value. […] Anion currents were isolated from inward Ba^2+ currents after blockade of Ca^2+ channels with 100 μM Cd^2+.

[3] = test system: VDRmem; assay: Binding to membrane receptor VDRmem; details: relative to 1α,25(OH)2 D3

| Compound | antagonism of 1α,25(OH)2 D3-mediated MAP-kinase activation ([1]; HL 10^-9 M with 1α,25(OH)2 D3 at 1, 10 or 100×10^-10 M, 5 min) | stimulation of MAP-kinase by analog alone ([1]; HL alone) | antagonism of 1α,25(OH)2 D3-stimulated chloride channel opening [2] | activation of MAP-kinase versus 1α,25(OH)2 D3 ([1]; 1 minute) | activation of MAP-kinase versus 1α,25(OH)2 D3 ([1]; 5 minute) | binding to VDRmem receptor [3] [%] |
| --- | --- | --- | --- | --- | --- | --- |
| C=C1/C(=C\C=C2/CCC[C@]3(C)[C@@H]([C@H](C)CCCC(C)(C)O)CC[C@@H]23)C[C@@H](O)C[C@H]1O [HL] | antagonist of activation of MAP-kinases; also recorded: capable of antagonizing rapid responses; also recorded: able to block 1α,25(OH)2 D3 | no stimulation of MAP-kinase | capable of antagonizing rapid responses; also recorded: inhibit the ability of 1α,25(OH)2 D3 to increase outward currents |  |  |  |
| C[C@H](CCCC(C)(C)O)[C@H]1CC[C@H]2C3=CC=C4C[C@@H](O)C[C@H](O)[C@@]4(C)[C@@H]3CC[C@]12C [JN] |  |  |  | more than 1α,25(OH)2 D3 | only slightly less active | 105 |

From patent publication US6103709A (priority 1998, dated 2000)
